From US20140162942A1, “INHIBITION OF CYP3A DRUG METABOLISM” (priority 2010, published 2014)
Read-outs that look alike come from different tables or passages of the source.

Tests used:
Assay type in all cases: in vitro ADME
CYP3A4/5 = CYP3A4/5 inhibition, testosterone 6β-hydroxylation in human liver microsomes; settings: for Potential for Time-Dep. Inhibition: comparison with and without 30-minute pre-incubation; for IC50 at 5 min / inhibition at 5 min, 100 µM: human, pooled human liver microsomes, pH 7.4, probe testosterone (6β-hydroxylation)
Protocol: (§1) The basis for many of the following incubation conditions is described in the following references: Madan, et al., 2002,^(1) Huang, 2004,^(3) Ogilvie, et al., 2006,^(6) Pearce, et al., 1996,^(7) Tucker, et al., 2001,^(4) and Walsky and Obach, 2004.^(5) In general, incubations were conducted at approximately 37° C. in 400-μL incubation mixtures (target pH 7.4) containing high purity water, potassium phosphate buffer (50 mM), MgCl2 (3 mM), EDTA (1 mM), an NADPH-generating system [always the mixture of the following: NADP (1 mM), glucose-6-phosphate (5 mM), glucose-6-phosphate dehydrogenase (1 Unit/mL)], and marker substrate at the final concentrations indicated. Pooled human liver microsomes (from sixteen individuals) were used as the source of enzymes (Section 1.3.1.2). The concentrations of marker substrates were based on the Km and Vmax data that were determined previously (data not shown).
(§2) Due to the possibility that boceprevir may bind to microsomal protein or lipids, an attempt was made to design these experiments such that, in as many cases as possible, the microsomal protein, incubation time, and phosphate buffer concentration were 0.1 mg/mL, 5 minutes and 50 mM, respectively, for assays performed with human liver microsomes (Table 1). […] Since it is not imperative that the concentration of marker substrates be exactly equal to Km, the marker substrate concentrations were rounded up or down, as applicable, to simplify the experimental design (data not shown). […] Thus, the final incubation concentration of phenacetin was 60 μM (Table 1).
(§3) The ability of boceprevir to inhibit the CYP enzymes listed in Section 1.2.1 was investigated with a pool of sixteen individual human liver microsomal samples at the concentrations indicated in Table 1. Aliquots of the stock and/or working solutions of boceprevir were manually added to buffer mixtures containing the components described in Section 1.3.21. Incubation mixtures were prepared in bulk to obviate the need for directly pipetting very small volumes (i.e., 1 μL or less). Incubations containing no boceprevir (0 μM) contained the vehicle used to dissolve boceprevir (i.e., 1% methanol).
(§4) The Tecan liquid handling system conducted all remaining incubation steps, with the exception of the centrifugation. Aliquots of the buffer mixtures were then automatically added to 96-well plates at the appropriate locations in duplicate. Aliquots of a substrate working solution were added to the 96-well plates, prior to initiating reactions, to give the final concentrations indicated in Table 1. Reactions were initiated with the addition of an aliquot of an NADPH-generating system. Reactions were automatically terminated at approximately 5 minutes, by the addition of the appropriate internal standard (Table 5) and stop reagent; acetonitrile. Precipitated protein was removed by centrifugation (920 g for 10 minutes at 10° C.). Standards and quality control samples were similarly prepared with the addition of authentic metabolite standards.
(§5) To examine its ability to act as a time-dependent inhibitor, boceprevir (at the same concentrations used to evaluate direct inhibition) was pre-incubated at 37±1° C., in duplicate, with human liver microsomes and an NADPH-generating system for approximately 30 minutes. This pre-incubation allowed for the generation of intermediates that could inhibit human CYP enzymes. The pre-incubations were initiated with the addition of an aliquot of an NADPH-generating system. […] Reactions were automatically terminated, at approximately 5 minutes, by the addition of the appropriate internal standard (Table 5) and stop reagent; acetonitrile. Precipitated protein was removed by centrifugation (920 g for 10 minutes at 10° C.). Incubations containing no boceprevir (0 μM) and incubations that contained boceprevir but were not pre-incubated, served as negative controls.

CYP2C8 = molecular target: T1, CYP2C8 (Homo sapiens, UniProt P10632); assay: CYP2C8 inhibition, amodiaquine N-dealkylation in human liver microsomes; settings: for Potential for Time-Dep. Inhibition: comparison with and without 30-minute pre-incubation
T1 construct: Pooled human liver microsomes (from sixteen individuals) were used as the source of enzymes; tissue XenoTech, LLC; host or cells: human liver microsomes, pool of sixteen donors
T1 sequence (P10632 1-490): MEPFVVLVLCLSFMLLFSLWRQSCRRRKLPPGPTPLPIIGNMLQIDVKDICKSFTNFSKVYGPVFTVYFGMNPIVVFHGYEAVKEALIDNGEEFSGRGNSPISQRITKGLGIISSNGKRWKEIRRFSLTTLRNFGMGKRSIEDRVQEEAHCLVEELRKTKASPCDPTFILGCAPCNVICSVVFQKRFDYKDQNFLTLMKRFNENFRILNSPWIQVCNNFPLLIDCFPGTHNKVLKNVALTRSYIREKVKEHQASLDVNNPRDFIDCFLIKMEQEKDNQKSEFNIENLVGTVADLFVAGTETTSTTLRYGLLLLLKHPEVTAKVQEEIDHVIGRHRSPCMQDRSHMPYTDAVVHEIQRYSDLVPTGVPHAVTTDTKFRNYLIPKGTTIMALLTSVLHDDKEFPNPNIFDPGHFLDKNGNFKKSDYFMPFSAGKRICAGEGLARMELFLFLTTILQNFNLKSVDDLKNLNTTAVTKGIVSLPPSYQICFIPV
Protocol: as §1, §2, §3, §4
To examine its ability to act as a time-dependent inhibitor, boceprevir (at the same concentrations used to evaluate direct inhibition) was pre-incubated at 37±1° C., in duplicate, with human liver microsomes and an NADPH-generating system for approximately 30 minutes. This pre-incubation allowed for the generation of intermediates that could inhibit human CYP enzymes. The pre-incubations were initiated with the addition of an aliquot of an NADPH-generating system. […]

CYP2D6 = molecular target: T2, CYP2D6 (Homo sapiens, UniProt P10635); assay: CYP2D6 inhibition, dextromethorphan O-demethylation in human liver microsomes; settings: for Potential for Time-Dep. Inhibition: comparison with and without 30-minute pre-incubation; for inhibition at 5 min, 100 µM: human, pH 7.4, probe dextromethorphan (O-demethylation)
T2 construct: Pooled human liver microsomes (from sixteen individuals) were used as the source of enzymes; tissue XenoTech, LLC; host or cells: human liver microsomes, pool of sixteen donors
Protocol: as §1, §2, §3, §4, §5

CYP2A6 = molecular target: T3, CYP2A6 (Homo sapiens, UniProt P11509); assay: CYP2A6 inhibition, coumarin 7-hydroxylation in human liver microsomes; settings: for Potential for Time-Dep. Inhibition: comparison with and without 30-minute pre-incubation; for inhibition at 5 min, 100 µM: human, pH 7.4, probe coumarin (7-hydroxylation)
T3 construct: Pooled human liver microsomes (from sixteen individuals) were used as the source of enzymes; tissue XenoTech, LLC; host or cells: human liver microsomes, pool of sixteen donors
T3 sequence (P11509 1-494): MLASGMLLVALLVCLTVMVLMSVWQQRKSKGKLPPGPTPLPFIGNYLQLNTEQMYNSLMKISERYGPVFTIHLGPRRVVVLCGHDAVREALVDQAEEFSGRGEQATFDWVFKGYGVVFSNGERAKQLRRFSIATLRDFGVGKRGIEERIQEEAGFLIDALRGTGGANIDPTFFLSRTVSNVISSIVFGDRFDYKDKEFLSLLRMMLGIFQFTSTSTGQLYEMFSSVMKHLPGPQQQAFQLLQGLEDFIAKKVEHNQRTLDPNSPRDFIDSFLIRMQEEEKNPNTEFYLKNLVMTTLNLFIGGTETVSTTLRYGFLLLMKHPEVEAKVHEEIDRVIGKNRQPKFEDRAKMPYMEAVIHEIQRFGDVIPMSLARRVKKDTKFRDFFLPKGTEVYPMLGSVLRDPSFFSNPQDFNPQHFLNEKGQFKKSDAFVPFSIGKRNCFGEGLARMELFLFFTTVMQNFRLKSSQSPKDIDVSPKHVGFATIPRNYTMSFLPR
Protocol: as §1, §2, §3, §4, §5

[1] = time-dependent inhibition, 30-minute pre-incubation
[2] = direct inhibition, zero-minute pre-incubation, pooled human liver microsomes
[3] = pooled human liver microsomes, direct inhibition, zero-minute pre-incubation, read-out: Max. Inhib. at 100 μM
[4] = pooled human liver microsomes, time-dependent inhibition, 30-minute pre-incubation, read-out: Maximum Inhibition at 100 μM

T2 sequence (P10635 whole entry): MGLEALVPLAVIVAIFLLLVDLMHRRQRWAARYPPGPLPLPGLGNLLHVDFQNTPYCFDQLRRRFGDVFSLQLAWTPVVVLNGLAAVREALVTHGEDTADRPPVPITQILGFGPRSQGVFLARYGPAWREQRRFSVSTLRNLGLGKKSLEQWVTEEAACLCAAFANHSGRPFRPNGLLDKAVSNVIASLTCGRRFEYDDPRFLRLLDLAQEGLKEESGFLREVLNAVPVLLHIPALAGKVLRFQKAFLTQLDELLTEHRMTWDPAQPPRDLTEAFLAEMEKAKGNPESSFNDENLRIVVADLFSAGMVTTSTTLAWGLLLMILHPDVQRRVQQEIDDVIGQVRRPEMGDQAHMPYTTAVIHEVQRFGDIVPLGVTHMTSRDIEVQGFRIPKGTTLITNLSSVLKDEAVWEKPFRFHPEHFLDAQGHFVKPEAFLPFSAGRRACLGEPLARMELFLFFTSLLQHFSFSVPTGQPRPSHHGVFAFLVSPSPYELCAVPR

CC(C)(C)NC(=O)NC(C(=O)N1CC2C([C@H]1C(=O)NC(CC1CCC1)C(=O)C(N)=O)C2(C)C)C(C)(C)C (stereo partly drawn) [Boceprevir, (1R,2S,5S)—N-[(2Ξ)-4-amino-1-cyclobutyl-3,4-dioxobutan-2-yl]-3-{(2S)-2-[(tert-butylcarbamoyl)amino]-3,3-dimethylbutanoyl}-6,6-dimethyl-3-azabicyclo[3.1.0]hexane-2-carboxamide]
Potential for Time-Dep. Inhibition (CYP3A4/5): yes^c | Potential for Time-Dep. Inhibition (CYP3A4/5; listed as boceprevir): caused time-dependent inhibition | IC50 at 5 min (CYP3A4/5; direct inhibition, zero-minute pre-incubation): > 100000 nM | inhibition at 5 min, 100 µM (CYP3A4/5; direct inhibition, zero-minute pre-incubation, read-out: Max. Inhib. at 100 μM): 41% | IC50 at 5 min (CYP3A4/5; [1]): 2300 nM | inhibition at 5 min, 100 µM (CYP3A4/5; time-dependent inhibition, 30-minute pre-incubation, read-out: Maximum Inhibition at 100 μM): 95% | Potential for Time-Dep. Inhibition (CYP2C8): little or no | Potential for Time-Dep. Inhibition (CYP2C8; listed as boceprevir): no discernable time-dependent inhibition | IC50 (CYP2C8; [2]): > 100 µM | inhibition at 5 min, 100 µM (CYP2C8; human, pooled human liver microsomes, pH 7.4, probe amodiaquine (N-dealkylation), direct inhibition, zero-minute pre-incubation, read-out: Max. Inhib. at 100 μM): 25% | IC50 (CYP2C8; [1]): > 100 µM | Potential for Time-Dep. Inhibition (CYP2D6): little or no | Potential for Time-Dep. Inhibition (CYP2D6; listed as boceprevir): no discernable time-dependent inhibition | IC50 (CYP2D6; [2]): > 100 µM | inhibition at 5 min, 100 µM (CYP2D6; [3]): 45% | inhibition at 5 min, 100 µM (CYP2D6; [4]): 30% | IC50 (CYP2D6; [1]): > 100 µM | Potential for Time-Dep. Inhibition (CYP2A6): little or no | Potential for Time-Dep. Inhibition (CYP2A6; listed as boceprevir): no discernable time-dependent inhibition | IC50 (CYP2A6; [2]): > 100 µM | inhibition at 5 min, 100 µM (CYP2A6; [3]): 20% | inhibition at 5 min, 100 µM (CYP2A6; [4]): 7.8% | IC50 (CYP2A6; [1]): > 100 µM
